Results published in PMC12730333 (Biology, 2025).
Marks after values point to notes of the source that are not given here.

How the values were obtained:
[1] = system: promastigote forms of Leishmania amazonensis PH8 strain; experiment: Leishmanicidal activity assay on promastigotes (Alamar Blue, 24 h); assay type: cell-based; settings: Leishmania amazonensis, 10^6 parasites/mL
Method: Promastigote forms of Leishmania amazonensis (IFLA/BR/1967/PH8) were obtained from the Instituto Oswaldo Cruz Leishmania collection (CLIOC/Fiocruz). These cultures were maintained in Schneider’s Insect Medium, supplemented with 20% FBS and 1 μL/mL of Pen/Str at 26 °C. In vitro passages were conducted weekly, with promastigotes harvested during the late logarithmic phase for experiments on the 5th day of growth (Figure S1A).
MT was employed as the reference drug.

[2] = Cytotoxicity assay (Alamar Blue, 24 h) on L929 fibroblasts; assay type: cell-based, murine; settings: mouse, L929 fibroblasts
Method: (§1) HepG2 cells (human hepatocellular carcinoma), VERO cells (African green monkey kidney), and J774.G8 macrophages (murine reticulosarcoma) were maintained in DMEM medium, supplemented with 10% FBS, 1% Pen/Str at 37 °C and 5% CO2 [70, 71]. For the cultivation of L929 fibroblasts (murine fibrosarcoma), RPMI 1640 medium without phenol red, supplemented with 2 mM L-glutamine, 10% FBS, and 1% Pen/Str, was used and maintained under the same conditions of temperature and CO2 as above.
(§2) J774.G8, VERO (10^5 cells/well), HepG2, L929 (0.5 × 10^5 cells/well) cells, and MPMs (3 × 10^5 cells/well) were centrifuged, resuspended in medium, plated in 96-well microplates, and incubated for 24 h under cultivation conditions. Subsequently, they were exposed to different concentrations of the compounds, serially diluted in medium to a final volume of 100 µL/well, and incubated for 24 h at 37 °C and 5% CO2. Cell viability was then assessed using the AB, and data were acquired by spectrophotometry. […] Untreated cells were used as negative controls, and cells exposed to the reference compound (MT) were used as positive controls. The Selectivity Index (SI) was calculated using the ratio SI = CC50 (mammalian cells)/IC50 (promastigote or amastigote forms of L. amazonensis).

[3] = Cytotoxicity assay (Alamar Blue, 24 h) on HepG2 cells; assay type: cell-based, human; settings: human, HepG2 cells
Method: as §1, §2

[4] = system: HepG2 cells; experiment: as above; assay type: cell-based, human; settings: 0.5 × 10^5 cells/well
Method: as §1, §2

[5] = Cytotoxicity assay (Alamar Blue, 24 h) on VERO cells; assay type: cell-based, African green monkey; settings: African green monkey, VERO cells
Method: as §1, §2

[6] = Cytotoxicity assay (Alamar Blue, 24 h) on J774.G8 macrophages; assay type: cell-based, murine; settings: mouse, J774.G8 macrophages
Method: as §1, §2

[7] = Cytotoxicity assay (Alamar Blue, 24 h) on murine peritoneal macrophages; assay type: cell-based, Swiss Webster mice; settings: male, Swiss Webster, mouse, murine peritoneal macrophages (MPMs, primary cells), 3 × 10^5 cells/well
Method: Murine peritoneal macrophages—MPMs (primary cells)—were isolated from male Swiss Webster mice stimulated with 1 mL of 3% Brewer’s thioglycollate medium, administered intraperitoneally. After 96 h, the animals were euthanized, and the MPMs were collected by peritoneal lavage with approximately 10 mL of RPMI 1640 medium. The cell suspension was centrifuged at 382× g for 10 min, and the pellet was resuspended in medium supplemented with 5% FBS, 1% Pen/Str, and 2 mM L-glutamine. All cell cultures were maintained at 37 °C and 5% CO2 [73]. For the experiments, all cell types were cultured until confluency.
as §2

[8] = system: promastigote forms of Leishmania amazonensis PH8 strain; experiment: ROS production by flow cytometry, H2DCFDA, promastigotes; assay type: cell-based; settings: exposed to IC50 (AA 10 µM), 24 h
[9] = system: ex vivo amastigote forms of L. amazonensis LTB0016 strain; experiment: ROS production by flow cytometry, H2DCFDA, ex vivo amastigotes; assay type: cell-based, Leishmania amazonensis; settings: exposed to IC50 (AA 10 µM), 24 h
[10] = system: promastigote forms of Leishmania amazonensis PH8 strain; experiment: Preliminary MB concentration assessment on promastigotes, Neubauer chamber counting, 72 h; assay type: cell-based; settings: 3.13–200 μM tested
Method: Deyvison Rhuan Vasco-dos-Santos, Juliana Almeida-Silva, Ludmila Ferreira de Almeida Fiuza,
Natalia Vacani-Martins, Zênis Novais da Rocha, Maria de Nazaré Correia Soeiro, Andrea Henriques-Pons,
Eduardo Caio Torres-Santos and Marcos André Vannier-Santos
Evaluation of parasite proliferation after 24 h (B2), 48 h (B3), and 72 h (B4) are shown. Viability was
assessed by counting in a Neubauer chamber. Data represents mean ± SD. (*) p < 0.05 when
compared to negative control by ANOVA and Tukey’s post-test. […]

[11] = system: Leishmania amazonensis promastigote forms (PH8 strain)
Method: (§3) Promastigotes were kept at 26 °C, whereas amastigotes were kept at 32 °C. After 24 h, parasite viability was assessed using the AB colorimetric method, and the data were analyzed using a spectrophotometer as previously described [74]. […] Wells with medium and without parasites were used as blanks, and wells with medium and untreated parasites were used as negative controls. MT was employed as the reference drug.

[12] = system: promastigotes; settings: MB without light treatment; cited from earlier work
[13] = system: fibroblasts and macrophages; design: method as in PMID 38917757; settings: MB without light treatment; cited from earlier work
[14] = system: L. amazonensis; design: method as in Cabral et al. 136; settings: MB treatment with PDT; ref Cabral et al. 136; cited from earlier work
[15] = system: ex vivo amastigote forms of Leishmania amazonensis LTB0016 strain; experiment: Cell death by flow cytometry, 7-AAD, ex vivo amastigotes; settings: IC50, 24 h, mean ± SD
[16] = system: promastigote forms of Leishmania amazonensis PH8 strain; experiment: Cell death by flow cytometry, Annexin V/PI, promastigotes; settings: 200 μM, 24 h, preliminary assay (Figure S5); control 99.81%
[17] = system: ex vivo amastigote forms of L. amazonensis LTB0016 strain; experiment: Leishmanicidal activity assay on ex vivo amastigotes (Alamar Blue, 24 h); settings: Leishmania amazonensis, 24 h, read-out: IC50 Ama.
Source text: Ex vivo amastigote forms of L. amazonensis (MHOM/BR/77/LTB0016) were harvested and purified from lesions of male BALB/c mice. For this, a suspension containing 10^6 amastigotes was inoculated subcutaneously into the intraplantar region of the hind paw. After 30 days, the animals were euthanized, and their paws were excised and rinsed in 70% ethanol. The epidermis and necrotic tissues were mechanically dissociated. Subsequently, the paws were placed in Petri dishes containing RPMI 1640 medium supplemented with 5% FBS and 2% Pen/Str. […] The supernatant was transferred to another tube, homogenized with a syringe, and centrifuged at 764× g for another 15 min. The supernatant was discarded, and the pellet was resuspended in RPMI 1640 medium [69].
as §3

[18] = system: promastigote forms of Leishmania amazonensis PH8 strain; experiment: Mitochondrial membrane potential (ΔΨm) by flow cytometry, TMRE, promastigotes; settings: exposed to IC50, 24 h
[19] = system: ex vivo amastigote forms of L. amazonensis LTB0016 strain; experiment: Mitochondrial membrane potential (ΔΨm) by flow cytometry, TMRE, ex vivo amastigotes
[20] = lower concentrations (37–100 μM)
[21] = exposed to IC50, 24 h, (MT − MC)/MC

For `CN(C)c1ccc2nc3ccc(=[N+](C)C)cc-3sc2c1` [MB, methylene blue, reference compound], the IC50 [1] was 61.4 ± 4.41 µM, the CC50 at 24 h ([2]; 0.5 × 10^5 cells/well) was 322 ± 3.74 µM and the viability at 24 h ([2]; lower concentrations (37–100 μM), read-out: viability of L929 cells) was greater than 50%. It also gave a CC50 at 24 h ([3]; 0.5 × 10^5 cells/well) greater than 70 µM, a viability at 24 h [3, 20] greater than 50% and a CC50 [4] of 96 ± 3.28 µM. The CC50 at 24 h ([5]; 10^5 cells/well) was 141 ± 5.58 µM, the viability at 24 h [5, 20] was greater than 50% and the CC50 at 24 h ([6]; 10^5 cells/well, read-out: CC50 J744.G8) was 206 ± 9.19 µM. For the same compound, the viability at 24 h ([6]; lower concentrations (37–100 μM), read-out: viability of J774.G8 cells) was greater than 50%, the CC50 at 24 h [7] was 36 ± 3.69 µM and the “H2DCFDA MFI, Promastigotes High Population” value [8] was 1,658,186.80 *. The “H2DCFDA MFI, Promastigotes Low Population” value [8] was 26,534.03, the “H2DCFDA MFI, Ex Vivo Amastigotes High Population” value [9] was 140,636.20 and the “H2DCFDA MFI, Ex Vivo Amastigotes Low Population” value [9] was 3151.50. For the same compound, the “VIROS, Ex Vivo Amastigotes High Population” value ([9]; MT/MC) was 0.90 ± 0.29, the “VIROS, Ex Vivo Amastigotes Low Population” value ([9]; MT/MC) was 1.28 ± 0.46 and the “concentration from which significant reduction (p < 0.05) at 48 h” value ([10]; 48 h) was no less than 50 µM. The “concentration from which total viability loss at 72 h” value ([10]; 72 h) was no less than 12.50 µM, the “proliferation of promastigotes over 24 to 168 h” value ([11]; exposed to IC50) was “total inhibition from 96 h” and the “time from which proliferation was significantly (p < 0.05) reduced compared to MT” value ([11]; exposed to IC50, 24–168 h) was no less than 24 h. For the same compound, the IC50 [12] was 100 µM, the “cytotoxicity in fibroblasts and macrophages” value [13] was “no cytotoxicity observed” and the “increase in ROS levels” value [14] was 2 fold. For the same compound, the “reduction in ΔΨm” value [14] was 60%, the “cell death (7-AAD) in ex vivo amastigotes” value [15] was “highest mortality rate” and the “viability of promastigotes (AV/PI)” value [16] was 12.89%. The IC50 [17] was 15.7 ± 2.23 µM, the “TMRE MFI, Promastigotes High Population” value [18] was 56,878.47 and the “TMRE MFI, Promastigotes Low Population” value [18] was 2737.60 *. The “VIΔΨm, Promastigotes High Population” value ([18]; (MT − MC)/MC) was 0.02 ± 0.03, the “VIΔΨm, Promastigotes Low Population” value ([18]; (MT − MC)/MC, negative = depolarization) was −0.41 ± 0.05 and the “loss of potential (ΔΨm) in HP ex vivo amastigotes / mitochondrial depolarization” value ([19]; IC50, 24 h) was “up to 61%”. For the same compound, the “decrease of ΔΨm considering both subpopulations” value ([19]; ex vivo amastigotes, LP plus HP, IC50, 24 h) was 98%, the “TMRE MFI, ex vivo Amastigotes High Population” value ([19]; exposed to IC50, 24 h) was 317,106.50 and the “TMRE MFI, ex vivo Amastigotes Low Population” value ([19]; exposed to IC50, 24 h) was 3237.43. The “VIΔΨm, ex vivo Amastigotes High Population” value [19, 21] was −0.61 ± 0.18 and the “VIΔΨm, ex vivo Amastigotes Low Population” value [19, 21] was −0.37 ± 0.32.
